These results are taken from patent publication US7582663B2, “Biaromatic compounds which activate PPARγ type receptors and cosmetic/pharmaceutical compositions comprised thereof” (Galderma Research & Development, priority 2002, dated 2009).

The assay concerns the target T1, PPARγ (Homo sapiens, UniProt P37231).
T1 sequence (P37231 238-505 limits assumed): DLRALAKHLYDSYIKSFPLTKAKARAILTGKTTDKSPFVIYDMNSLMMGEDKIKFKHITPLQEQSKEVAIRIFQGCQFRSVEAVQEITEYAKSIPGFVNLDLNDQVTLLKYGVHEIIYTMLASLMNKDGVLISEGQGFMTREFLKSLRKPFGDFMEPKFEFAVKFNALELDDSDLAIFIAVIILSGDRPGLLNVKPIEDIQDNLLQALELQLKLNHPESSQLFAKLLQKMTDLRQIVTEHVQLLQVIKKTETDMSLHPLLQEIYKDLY
As to the kind of experiment: Crossed-curve PPAR transactivation test (PPARγ). In kind it is cell-based. The note with it: HeLN cells stably transfected with Gal-hPPARγ and luciferase reporter; Schild regression against reference agonist; n.a. means not active; read-out: PPARγ Kd app. On the procedure:
The activation of receptors with an agonist (activator) in HeLN cells leads to the expression of a reporter gene, luciferase, which, in the presence of a substrate, generates light. The modulation of the receptors is measured by quantifying the luminescence produced after incubating the cells in the presence of a reference agonist. The ligands displace the agonist from its site. The measurement of the activity is performed by quantifying the light produced. This measurement makes it possible to determine the modulatory activity of the compounds according to the invention by determining the constant that is the affinity of the molecule for the receptor. Since this value can fluctuate depending on the basal activity and the expression of the receptor, it is referred to as Kd apparent (KdApp in nM).
This is 88 measurement points for 1 product and 1 receptor. The remaining 8 wells are used for repeatability controls.
Measurements are also taken for total agonist controls with the same products.
The HeLN cell lines used are stable transfectants containing the plasmids ERE-βGlob-Luc-SV-Neo (reporter gene) and PPAR (α, δ, γ) Gal-hPPAR. These cells are inoculated into 96-well plates at a rate of 10 000 cells per well in 100 μl of DMEM medium without phenol red and supplemented with 10% of defatted calf serum. The plates are then incubated at 37° C. and 7% CO2 for 16 hours.
The various dilutions of the test products and of the reference ligand are added at a rate of 5 μl per well. The plates are then incubated for 18 hours at 37° C. and 7% CO2. The culture medium is removed by turning over and 100 μl of a 1:1 PBS/luciferine mixture are added to each well. After 5 minutes, the plates are read by the luminescence detector.
(In general: A reporter such as luciferase makes a cellular process visible.)
As to `CCCc1nnc(C(Cc2ccc(-c3cccc(CN(C)C(=O)c4ccc5cc(OCOCCOC)ccc5c4)c3)cc2)OCC)o1` (stereo not drawn) [Example 1, N-{4′-[2-ethoxy-2-(5-propyl[1,3,4]oxadiazol-2-yl)ethyl]biphenyl-3-ylmethyl}-N-methyl-6-(2-methoxyethoxymethoxy)naphthalene-2-carboxylamide], the Kd was 250 nM. As for `CCCc1nnc(C(Cc2ccc(-c3cccc(CN(C)C(=O)c4ccc(Oc5ccccc5)cc4)c3)cc2)OCC)o1` (stereo not drawn) [Example 2, N-{4′-[2-ethoxy-2-(5-propyl[1,3,4]oxadiazol-2-yl)ethyl]biphenyl-3-ylmethyl}-N-methyl-4-phenoxybenzamide], the figure is 1000 nM; as for `CCCc1nnc(C(Cc2ccc(-c3cccc(CN(C)C(=O)c4ccc5cc(C(=O)OC)ccc5c4)c3)cc2)OCC)o1` (stereo not drawn) [Example 7, methyl 6-({4′-[2-ethoxy-2-(5-propyl[1,3,4]oxadiazol-2-yl)ethyl]biphenyl-3-ylmethyl}methylcarbamoyl)naphthalene-2-carboxylate], 250 nM.
